Test results from the supplement of paper PMC12137928.
Counter-ions that a name gives are not always drawn.

Tested on: HCT116
Details: 72 h
Summary of the method: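 HCT116 cells went into 1536-well plates at 250 per well. CellTiter-Glo luminescence was expressed relative to vehicle (0%) and positive control (-100%) and then pattern-corrected. Both IC50 and maximal efficacy were taken from four-parameter Hill fits.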

| Compound | IC50 cell viability (ICRF193 0 nM) [µM] | IC50 cell viability (ICRF193 200 nM) [µM] |
| --- | --- | --- |
| C[C@@H]1C[C@H]2[C@@H]3CCC4=CC(=O)C=C[C@]4(C)[C@@]3(F)[C@@H](O)C[C@]2(C)[C@@]1(O)C(=O)COP(=O)(O)O [Dexamethasone 21-phosphate disodium salt] | > 45.8 | > 45.8 |
| CCCCCCCCCCCC(=O)OCC(O)CO (centres undefined) [GLYCERYL LAURATE] | > 45.8 | > 45.8 |
| O=C(O)Cc1cccc(-c2cc(CCCCCCc3ccc(O[C@H]4O[C@H](CO)[C@@H](O)[C@H](O)[C@@H]4O)c(-c4cccc(CC(=O)O)c4)c3)ccc2O[C@H]2O[C@H](CO)[C@@H](O)[C@H](O)[C@@H]2O)c1 [Bimosiamose] | > 45.8 | > 45.8 |
| NCCS(=O)(=O)O [Taurine] | > 45.8 | > 45.8 |
| OCCOCCOCCO [Triethylene glycol] | > 45.8 | > 45.8 |
| O=c1cc[nH]c(=O)[nH]1 [Uracil] | > 45.8 | > 45.8 |
| CC(C)=C/C(C)=N/Nc1nncc2ccccc12 [Budralazine] | > 45.8 | > 45.8 |
| CNc1ncc(-c2ccc3c(=O)c(C(=O)O)cn(C4CC4)c3c2C)cc1C [OZENOXACIN] | > 45.8 | > 45.8 |
| CCCCc1cc2c(=O)c(C(=O)OC)c[nH]c2cc1OCc1ccccc1 [Nequinate] | > 45.8 | > 45.8 |
| OCCN(CCO)CCO [Triethanolamine] | > 45.8 | > 45.8 |
| CC#CCC(C)[C@H](O)/C=C/[C@@H]1[C@H]2C/C(=C/CCCC(=O)O)C[C@H]2C[C@H]1O (some centres undefined) [Iloprost] | > 45.8 | > 45.8 |
| COc1cc2c(cc1OC)C(=O)C(CC1CCN(Cc3ccccc3)CC1)C2 (centres undefined) [Donepezil hydrochloride] | > 45.8 | > 45.8 |
| OCCOc1ccccc1 [2-Phenoxyethanol] | > 45.8 | > 45.8 |
| O=C1CC2(CCCC2)CC(=O)N1CCCCN1CCN(c2ncccn2)CC1 [Buspirone] | > 45.8 | > 45.8 |
| CCC[C@H](N[C@@H](C)C(=O)N1[C@H](C(=O)O)C[C@@H]2CCCC[C@@H]21)C(=O)OCC [Perindopril] | > 45.8 | > 45.8 |
| CCCCCCCCCCCCCCCCOP(=O)([O-])OCC[N+](C)(C)C [Miltefosine] | > 45.8 | > 45.8 |
| CCC(=O)c1c(O)cc(O)cc1O [Flopropione] | > 45.8 | > 45.8 |
| C[C@@H](c1ncncc1F)[C@](O)(Cn1cncn1)c1ccc(F)cc1F [Voriconazole] | > 45.8 | > 45.8 |
| CC(C)C(=O)OCC(=O)[C@@]12O[C@H](C3CCCCC3)O[C@@H]1C[C@H]1[C@@H]3CCC4=CC(=O)C=C[C@]4(C)[C@H]3[C@@H](O)C[C@@]12C [Ciclesonide] | > 45.8 | > 45.8 |
| N=C(N)NCCCCCCC(=O)NC(O)C(=O)NCCCCNCCCN (centres undefined) [Gusperimus trihydrochloride] | > 45.8 | > 45.8 |
| COc1ccccc1OCC(O)CO (centres undefined) [Guaifenesin] | > 45.8 | > 45.8 |
| CN(C)CCC=C1c2ccccc2COc2ccccc21 [Doxepin hydrochloride] | > 45.8 | > 45.8 |
| N[C@H](C(=O)O)[C@H](O)c1ccc(O)c(O)c1 [Droxidopa] | > 45.8 | > 45.8 |
| CC(C)COC(=O)OCN1C(=O)CN(CCN2CC(=O)N(COC(=O)OCC(C)C)C(=O)C2)CC1=O [Sobuzoxane] | > 45.8 | > 45.8 |
| Cc1ccc(Nc2c(F)cccc2Cl)c(CC(=O)O)c1 [Lumiracoxib] | > 45.8 | > 45.8 |
| COc1cccc(CCc2ccccc2OCC(CN(C)C)OC(=O)CCC(=O)O)c1 (centres undefined) [Sarpogrelate hydrochloride] | > 45.8 | > 45.8 |
| COc1cc(N)c(Cl)cc1C(=O)NC1CCN(Cc2ccccc2)CC1 [Clebopride maleate] | > 45.8 | > 45.8 |
| O=[N+]([O-])c1ccccc1 [Nitrobenzene] | > 45.8 | > 45.8 |
| CCN(CC)CCOCCOC(=O)C(CC)(CC)c1ccccc1 [Oxeladin Citrate] | > 45.8 | > 45.8 |
| CN(C)[C@@H]1C(O)=C(C(=O)NCN2CCCC2)C(=O)[C@@]2(O)C(O)=C3C(=O)c4c(O)cccc4[C@@](C)(O)[C@H]3C[C@@H]12 [Rolitetracycline] | > 45.8 | > 45.8 |

Second part, the compound after the results:

| IC50 cell viability (ICRF193 0 nM) [µM] | IC50 cell viability (ICRF193 200 nM) [µM] | Compound |
| --- | --- | --- |
| > 45.8 | > 45.8 | CN1C(=O)C[C@@H](C(=O)N[C@@H](Cc2c[nH]cn2)C(=O)N2CCC[C@H]2C(N)=O)NC1=O [Taltirelin] |
| > 45.8 | > 45.8 | CC(C)=CCC/C(C)=C/CC/C(C)=C/CCC(=O)OC/C=C(\C)CCC=C(C)C [Gefarnate] |
| > 45.8 | > 45.8 | CC(C)(CO)[C@@H](O)C(=O)NCCC(=O)NCCSSCCNC(=O)CCNC(=O)[C@H](O)C(C)(C)CO [D-Pantethine] |
| > 45.8 | > 45.8 | O=c1c2c(c1=O)N(CCP(=O)(O)O)CCCN2 [EAA-090] |
| > 45.8 | > 45.8 | N=C(N)NC(=O)Cc1c(Cl)cccc1Cl [Guanfacine hydrochloride] |
| > 45.8 | > 45.8 | N[C@@H](CSCCCO)C(=O)O [Fudosteine] |
| > 45.8 | > 45.8 | C[C@]12CC[C@@H]3c4ccc(O)cc4CC[C@H]3[C@@H]1CCC2=O [Estrone] |
| > 45.8 | > 45.8 | CCCCCCCCCC(=O)OCCN1CCN(CC/C=C2/c3ccccc3Sc3ccc(Cl)cc32)CC1 [Zuclopenthixol Decanoate] |
| > 45.8 | > 45.8 | C[C@H]1NCc2cc(-c3ccc4c(=O)c(C(=O)O)cn(C5CC5)c4c3OC(F)F)ccc21 [Garenoxacin mesylate hydrate] |
| > 45.8 | > 45.8 | COc1nc(N)nc2c1ncn2[C@@H]1O[C@H](CO)[C@@H](O)[C@@H]1O [Nelarabine] |
| > 45.8 | > 45.8 | CN1CCCCC1CCN1c2ccccc2Sc2ccc([S+](C)[O-])cc21 (centres undefined) [Mesoridazine] |
| > 45.8 | > 45.8 | CC(C)(S)[C@H](N)C(=O)O [L-Penicillamine] |
| > 45.8 | > 45.8 | O=C(Nc1cccc(C2=NCCN2)c1)Nc1cccc(C2=NCCN2)c1 [Imidocarb dipropionate] |
| > 45.8 | > 45.8 | CC(COc1ccccc1)NC(C)C(O)c1ccc(O)cc1 (centres undefined) [Isoxsuprine hydrochloride] |
| > 45.8 | > 45.8 | CCOc1nc2cccc(C(=O)OCc3oc(=O)oc3C)c2n1Cc1ccc(-c2ccccc2-c2noc(=O)[nH]2)cc1 [Azilsartan Medoxomil] |
| > 45.8 | > 45.8 | COc1ccccc1OCC(O)CN1CCN(CC(=O)Nc2c(C)cccc2C)CC1 (centres undefined) [Ranolazine] |
| > 45.8 | > 45.8 | CC(C)(C)NC[C@H](O)COc1cccc2c1CCCC2=O [Levobunolol hydrochloride] |
